# Assay results as given in patent US20070128217A1 (priority 2003, published 2007).
# Columns and labels:
# [1] = test system: antibodies in sera from SARS patients (sera 1a, 1b, 2, 6, 37, 62, London, SARS-yellow, SARS-green); assay type: binding, human; set-up: Binding of serum 6 to linear peptides of protein X1 of SARS-CoV Urbani / Binding of serum 37 to linear peptides of protein X1 of SARS-CoV Urbani / Binding of serum 6 to looped/cyclic peptide (PEPSCAN-ELISA) / Binding of serum 37 to looped/cyclic peptide (PEPSCAN-ELISA) / Binding of serum 37 to looped/cyclic peptides of protein X1 of SARS-CoV Urbani / Binding of serum 6 to linear peptides of protein X2 / Binding of serum 37 to linear peptides of protein X2 / Binding of serum 37 to looped/cyclic peptides of protein X2 of SARS-CoV Urbani / Binding of serum 6 to linear peptides of protein M of SARS-CoV Urbani / Binding of serum 37 to linear peptides of protein M of SARS-CoV Urbani / Binding of serum 6 to looped/cyclic peptides of protein M of SARS-CoV Urbani / Binding of serum 37 to looped/cyclic peptides of protein M of SARS-CoV Urbani / Binding of serum 6 to linear peptides of protein X3 of SARS-CoV Urbani / Binding of serum 37 to linear peptides of protein X3 of SARS-CoV Urbani / Binding of serum 37 to looped/cyclic peptides of protein X3 of SARS-CoV Urbani / Binding of serum 6 to linear peptides of protein X4 of SARS-CoV Urbani / Binding of serum 37 to linear peptides of protein X4 of SARS-CoV Urbani / Binding of serum 37 to looped/cyclic peptides of protein X4 of SARS-CoV Urbani / Binding of serum 6 to linear peptides of protein X5 of SARS-CoV Urbani / Binding of serum 37 to linear peptides of protein X5 of SARS-CoV Urbani / Binding of serum 37 to looped/cyclic peptides of protein X5 of SARS-CoV Urbani / Binding of serum 6 to linear peptides of protein N of SARS-CoV Urbani / Binding of serum 37 to linear peptides of protein N of SARS-CoV Urbani / Binding of serum 6 to linear peptide (PEPSCAN-ELISA) / Binding of serum 1a to looped/cyclic peptides of protein N of SARS-CoV Urbani / Binding of serum 1b to looped/cyclic peptides of protein N of SARS-CoV Urbani / Binding of serum 2 to looped/cyclic peptides of protein N of SARS-CoV Urbani / Binding of serum 6 to looped/cyclic peptides of protein N of SARS-CoV Urbani / Binding of serum 37 to looped/cyclic peptides of protein N of SARS-CoV Urbani / Binding of serum 62 to looped/cyclic peptides of protein N of SARS-CoV Urbani / Binding of serum London to looped/cyclic peptides of protein N of SARS-CoV Urbani / Binding of serum SARS-green to looped/cyclic peptides of protein N of SARS-CoV Urbani: unit not given here
# [2] = test system: control sera (pooled serum of ten healthy LUMC hospital workers; commercial negative donor pooled serum from the Dutch bloodbank); assay type: binding, human; set-up: Binding of Control serum LUMC to linear peptides / Binding of Control serum Blood-bank to linear peptides / Binding of Control serum LUMC to looped peptides / Binding of Control Serum Blood-Bank to Looped peptides / Binding of Control serum LUMC to linear peptides of the protein M of SARS-CoV Urbani / Binding of Control serum Blood-bank to linear peptides of the protein M of SARS-CoV Urbani / Binding of Control serum LUMC to looped peptides of the protein M of SARS-CoV Urbani / Binding of Control Serum Blood-Bank to Looped peptides of the protein M of SARS-CoV Urbani: unit not given here
# [3] = test system: rabbit serum obtained by immunizing a rabbit with the SARS-CoV strain Frankfurt 1; assay type: binding; set-up: Binding of a rabbit serum to linear peptides / Binding of a rabbit serum to looped peptides / Rabbit serum linear peptides / Rabbit serum looped peptides / Binding of a rabbit serum to linear peptides of protein N of SARS-CoV Urbani (Rabbit serum linear peptides) / Binding of a rabbit serum to looped/cyclic peptides of protein N of SARS-CoV Urbani (Rabbit serum looped peptides): unit not given here
sequence,measurement,setting,value
LKMLHSSSLTSLLKT,Binding of serum 1a to linear peptides of protein X2,[1],0.6
same,Binding of serum 1a to looped/cyclic peptides of protein X2 of SARS-CoV Urbani,[1],0.5
same,Binding of serum 1b to linear peptides of protein X2,[1],0.5
same,Binding of serum 1b to looped/cyclic peptides of protein X2 of SARS-CoV Urbani,[1],0.5
same,Binding of serum 2 to linear peptides of protein X2,[1],0.6
same,Binding of serum 2 to looped/cyclic peptides of protein X2 of SARS-CoV Urbani,[1],0.3
same,Binding of serum 6 to linear peptides of protein X2,[1],0.4
same,Binding of serum 6 to looped/cyclic peptides of protein X2 of SARS-CoV Urbani,[1],0.3
same,Binding of serum 37 to linear peptides of protein X2,[1],0.6
same,Binding of serum 37 to looped/cyclic peptides of protein X2 of SARS-CoV Urbani,[1],0.4
same,Binding of serum 62 to linear peptides of protein X2,[1],0.6
same,Binding of serum 62 to looped/cyclic peptides of protein X2 of SARS-CoV Urbani,[1],0.6
same,Binding of serum London to linear peptides of protein X2,[1],0.5
same,Binding of serum London to looped/cyclic peptides of protein X2 of SARS-CoV Urbani,[1],0.2
same,Binding of serum SARS-green to linear peptides of protein X2,[1],0.5
same,Binding of serum SARS-green to looped/cyclic peptides of protein X2 of SARS-CoV Urbani,[1],0.3
same,Binding of serum SARS-yellow to linear peptides of protein X2,[1],0.6
same,Binding of serum SARS-yellow to looped/cyclic peptides of protein X2 of SARS-CoV Urbani,[1],0.2
same,Binding of Control Serum Blood-Bank to Looped peptides,[2],0.6
same,Binding of Control serum Blood-bank to linear peptides,[2],0.7
same,Binding of Control serum LUMC to linear peptides,[2],0.4
same,Binding of Control serum LUMC to looped peptides,[2],0.5
same,Binding of a rabbit serum to linear peptides,[3],0.2
same,Binding of a rabbit serum to looped peptides,[3],0.4
VATSRTLSYYKLGAS,Binding of serum 1a to linear peptides of protein M of SARS-CoV Urbani,[1],0.6
same,Binding of serum 1a to looped/cyclic peptides of protein M of SARS-CoV Urbani,[1],0.8
same,Binding of serum 1b to linear peptides of protein M of SARS-CoV Urbani,[1],0.5
same,Binding of serum 1b to looped/cyclic peptides of protein M of SARS-CoV Urbani,[1],0.6
same,Binding of serum 2 to linear peptides of protein M of SARS-CoV Urbani,[1],0.6
same,Binding of serum 2 to looped/cyclic peptides of protein M of SARS-CoV Urbani,[1],0.7
same,Binding of serum 6 to linear peptides of protein M of SARS-CoV Urbani,[1],0.8
same,Binding of serum 6 to looped/cyclic peptides of protein M of SARS-CoV Urbani,[1],0.6
same,Binding of serum 37 to linear peptides of protein M of SARS-CoV Urbani,[1],0.5
same,Binding of serum 37 to looped/cyclic peptides of protein M of SARS-CoV Urbani,[1],0.7
same,Binding of serum 62 to linear peptides of protein M of SARS-CoV Urbani,[1],0.5
same,Binding of serum 62 to looped/cyclic peptides of protein M of SARS-CoV Urbani,[1],0.6
same,Binding of serum London to linear peptides of protein M of SARS-CoV Urbani,[1],0.3
same,Binding of serum London to looped/cyclic peptides of protein M of SARS-CoV Urbani,[1],0.2
same,Binding of serum SARS-green to linear peptides of protein M of SARS-CoV Urbani,[1],0.4
same,Binding of serum SARS-green to looped/cyclic peptides of protein M of SARS-CoV Urbani,[1],0.3
same,Binding of serum SARS-yellow to linear peptides of protein M of SARS-CoV Urbani,[1],0.3
same,Binding of serum SARS-yellow to looped/cyclic peptides of protein M of SARS-CoV Urbani,[1],0.6
same,Binding of Control Serum Blood-Bank to Looped peptides of the protein M of SARS-CoV Urbani,[2],0.5
same,Binding of Control serum Blood-bank to linear peptides of the protein M of SARS-CoV Urbani,[2],0.8
same,Binding of Control serum LUMC to linear peptides of the protein M of SARS-CoV Urbani,[2],0.6
same,Binding of Control serum LUMC to looped peptides of the protein M of SARS-CoV Urbani,[2],0.6
same,Rabbit serum linear peptides,[3],0.3
same,Rabbit serum looped peptides,[3],0.7
PLFLIVAALVFLILC,Binding of serum 1a to linear peptides of protein X4 of SARS-CoV Urbani,[1],0.5
same,Binding of serum 1a to looped/cyclic peptides of protein X4 of SARS-CoV Urbani,[1],0.5
same,Binding of serum 1b to linear peptides of protein X4 of SARS-CoV Urbani,[1],0.4
same,Binding of serum 1b to looped/cyclic peptides of protein X4 of SARS-CoV Urbani,[1],0.1
same,Binding of serum 2 to linear peptides of protein X4 of SARS-CoV Urbani,[1],0.3
same,Binding of serum 2 to looped/cyclic peptides of protein X4 of SARS-CoV Urbani,[1],0.2
same,Binding of serum 6 to linear peptides of protein X4 of SARS-CoV Urbani,[1],0.3
same,Binding of serum 6 to looped/cyclic peptides of protein X4 of SARS-CoV Urbani,[1],0.5
same,Binding of serum 37 to linear peptides of protein X4 of SARS-CoV Urbani,[1],0.6
same,Binding of serum 37 to looped/cyclic peptides of protein X4 of SARS-CoV Urbani,[1],0.0
same,Binding of serum 62 to linear peptides of protein X4 of SARS-CoV Urbani,[1],0.7
same,Binding of serum 62 to looped/cyclic peptides of protein X4 of SARS-CoV Urbani,[1],0.1
same,Binding of serum London to linear peptides of protein X4 of SARS-CoV Urbani,[1],0.6
same,Binding of serum London to looped/cyclic peptides of protein X4 of SARS-CoV Urbani,[1],0.1
same,Binding of serum SARS-green to linear peptides of protein X4 of SARS-CoV Urbani,[1],0.5
same,Binding of serum SARS-green to looped/cyclic peptides of protein X4 of SARS-CoV Urbani,[1],0.2
same,Binding of serum SARS-yellow to linear peptides of protein X4 of SARS-CoV Urbani,[1],0.4
same,Binding of serum SARS-yellow to looped/cyclic peptides of protein X4 of SARS-CoV Urbani,[1],0.1
same,Binding of Control Serum Blood-Bank to Looped peptides,[2],0.5
same,Binding of Control serum Blood-bank to linear peptides,[2],0.4
same,Binding of Control serum LUMC to linear peptides,[2],0.4
same,Binding of Control serum LUMC to looped peptides,[2],0.5
same,Rabbit serum linear peptides,[3],0.4
same,Rabbit serum looped peptides,[3],0.0
